Laboratory results as given in patent US20230270753A1, “COMBINATIONS OF GABAA ALPHA 5 AGONISTS AND SV2A INHIBITORS AND METHODS OF USING IN THE TREATMENT OF COGNITIVE IMPAIRMENT” (AGENEBIO, INC., priority 2020, published 2023).

What was measured:
aMCI subjects [1] = assay: Neuropsychological tests outside the scanner (Buschke, Benton, Verbal Paired Associates); assay type: in vivo, human; details: levetiracetam 125 mg twice a day for two weeks
aged-impaired (AI) rats = assay: Radial Arm Maze task, one-hour delay, levetiracetam (Example 1); assay type: in vivo, rat
Description: The effects of levetiracetam on the spatial memory retention of aged-impaired (AI) rats were assessed in a Radial Arm Maze (RAM) behavioral task using vehicle control and five different dosage levels of levetiracetam (1.25 mg/kg/day, 2.5 mg/kg/day, 5 mg/kg/day, 10 mg/kg/day and 20 mg/kg/day). RAM behavioral tasks were performed on ten AI rats. All six treatment conditions were tested on all ten rats, as described above for the MWM test. The RAM apparatus used consisted of eight equidistantly spaced arms. An elevated maze arm (7 cm width×75 cm length) projected from each facet of an octagonal center platform (30 cm diameter, 51.5 cm height). […] A food well (4 cm diameter, 2 cm deep) was located at the distal end of each arm. Froot Loops' (Kellogg Company) were used as rewards. […] Numerous extra maze cues surrounding the apparatus were also provided. The AI rats were initially subjected to a pre-training test (Chappell et al. Neuropharmacology 37: 481-487, 1998). […] In the habituation phase, rats were familiarized to the maze for an 8-minute session on four consecutive days. […] To counterbalance any potential bias, drug effect was assessed using ascending-descending dose series, i.e., the dose series was given first in an ascending order and then repeated in a descending order. […]

[2] = tested on: reelin in Entorhinal Cortex (EC2); assay: Reelin mRNA in situ hybridization in entorhinal cortex (Example 5); assay type: in vivo, rat
aMCI subjects [3] = assay: Explicit 3-alternative forced choice task performance (Examples 2 and 3); assay type: in vivo, human
[4] = tested on: aged-impaired (AI) Long-Evans rats; assay: Morris Water Maze retention trial, levetiracetam (Example 1); assay type: in vivo, rat; details: levetiracetam 5 mg/kg/day i.p.; retention trial 24 hours after last training trial
Description: Six aged-impaired (AI) Long-Evans rats (as characterized above) were tested for their memory of new spatial information in the Morris water maze (MWM), under different drug/control treatment conditions (vehicle control and two different dosage levels of levetiracetam). A retention trial was performed after the training trials, as described below. The MWM apparatus consists of a large, circular pool (diameter 1.53 m; height, 0.58 m) filled with water (27° C.) that is made opaque through the addition of non-toxic pigment or some other substance. In the typical “hidden platform” version of the test, rats are trained to find a camouflaged white escape platform (height, 34.5 cm) that is positioned in the center of one quadrant of the maze about 1.0 cm below the water surface. This platform can be retracted to the bottom of the tank or raised to its normal position from outside the maze during behavioral testing. The location of the platform remains constant from trial to trial. […] The behavior of a rat in the pool is recorded by a camera that is suspended 2.5 m above the center of the pool. […] In the retention trial, the time the AI rats spent swimming in the target quadrant is measured and further plotted as a percentage of total swimming time. […]

In the case of `CC[C@@H](C(N)=O)N1CCCC1=O` [levetiracetam, (2S)-2-(2-oxopyrrolidin-1-yl)butanamide], the “performance in Buschke Selective Reminding Test-Delayed Recall, Benton Visual Retention Test, Verbal Paired Associates Test-Recognition and -Delayed Recall” value (aMCI subjects [1]) is reported as “fail to rescue performance”, the “effective doses of levetiracetam in the animal model (radial arm maze errors)” value (aged-impaired (AI) rats; AI rats, levetiracetam on its own) is reported as 5 to 10 mg/kg and the “reduction of the number of errors in the radial arm maze” value (aged-impaired (AI) rats; levetiracetam on its own at 1.25 mg/kg or 2.5 mg/kg) is reported as “not at 1.25 mg/kg or 2.5 mg/kg”. For the same compound, the “reelin mRNA expression in the lateral entorhinal cortex vs AI-VEH” value ([2]; levetiracetam 10 mg/kg/day for 28 days, AI rats) was “significantly increased the expression of reelin”, the “levels of reelin in Entorhinal Cortex (EC2)” value ([2]; levetiracetam 10 mg/kg/day in osmotic minipumps for four weeks, aged-impaired rats) was “restores the levels of reelin in Entorhinal Cortex (EC2)” and the “performance in the explicit 3-alternative forced choice task” value (aMCI subjects [3]; levetiracetam 62.5 mg BID for two weeks) was “improves significantly”. The “performance in the explicit 3-alternative forced choice task” value (aMCI subjects [3]; levetiracetam 125 mg twice a day for two weeks) was “improves significantly”, the “performance in the explicit 3-alternative forced choice task” value (aMCI subjects [3]; levetiracetam 250 mg BID for two weeks) was “does not significantly improve” and the “time spent in the target quadrant vs vehicle” value [4] was “did not significantly improve”.
